78 compounds from PubChem BioAssay AID602264 (The Scripps Research Institute Molecular Screening Center, 2012) can be followed below.

SMILES strings stand for the structures. “And” between values parts separate entries of the source, which are not always exact repeats. Equal values may be shown once. The source made the active and inactive calls. How the calls were made is not given here. A value given as a limit tells only on which side of the number the result lay.

For this test, the target named is Mu-type opioid receptor (Homo sapiens) + Delta-type opioid receptor (Homo sapiens) (UniProt P35372+P41143). Kind of test: OPRM1-OPRD1 heterodimer agonist potency – cell-based, luminescence, counter-screen for MC4R biased agonist project, dose response (AID 602264). To be noted: cell-based OPRM1-OPRD1 heterodimerization.
Mu-type opioid receptor (Homo sapiens) + Delta-type opioid receptor (Homo sapiens), sequence (P35372 whole entry, looked up): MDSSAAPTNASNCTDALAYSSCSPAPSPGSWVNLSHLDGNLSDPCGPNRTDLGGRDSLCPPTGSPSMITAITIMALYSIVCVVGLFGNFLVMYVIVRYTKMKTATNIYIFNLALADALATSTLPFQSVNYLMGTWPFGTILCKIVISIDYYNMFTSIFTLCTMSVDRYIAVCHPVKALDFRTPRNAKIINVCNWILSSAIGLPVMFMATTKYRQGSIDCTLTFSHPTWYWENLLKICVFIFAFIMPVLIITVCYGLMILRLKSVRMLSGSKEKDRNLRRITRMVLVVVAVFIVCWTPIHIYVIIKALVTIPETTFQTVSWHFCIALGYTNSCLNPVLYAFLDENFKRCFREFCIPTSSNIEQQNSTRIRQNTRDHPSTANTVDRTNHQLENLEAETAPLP
Mu-type opioid receptor (Homo sapiens) + Delta-type opioid receptor (Homo sapiens), sequence (P41143 whole entry, looked up): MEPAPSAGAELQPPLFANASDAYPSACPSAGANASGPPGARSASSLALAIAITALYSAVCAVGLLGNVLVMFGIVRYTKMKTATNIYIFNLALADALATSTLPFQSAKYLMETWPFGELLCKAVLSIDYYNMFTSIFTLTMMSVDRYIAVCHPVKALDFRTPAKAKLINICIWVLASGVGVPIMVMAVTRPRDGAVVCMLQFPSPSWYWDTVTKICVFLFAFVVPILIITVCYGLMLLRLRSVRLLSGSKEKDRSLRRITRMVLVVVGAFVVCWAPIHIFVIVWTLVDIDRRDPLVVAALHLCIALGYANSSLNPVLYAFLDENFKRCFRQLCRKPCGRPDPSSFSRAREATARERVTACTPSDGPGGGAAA

On to `O=C(NC(c1ccc(Cl)cc1)c1cccnc1)C1CCN(CCOc2ccc(Cl)cc2Cl)CC1` (stereo not drawn), for which the EC50 was > 92.4 µM (inactive).

Consider `Cc1ccccc1-c1nc(-c2ccc(NC(=O)c3ccc(Br)o3)cc2)no1`, for which the EC50 is > 92.5 µM (inactive).

For `COc1ccc2nc(NC(=O)CSc3nc4cccnc4n3C)sc2c1`, the EC50 is > 64.6 µM (inactive).

As for `O=C(NC(c1ccccc1)c1ccc2ccccc2n1)C1CCN(CCOc2ccc(Cl)cc2Cl)CC1` (stereo not drawn), the EC50 result is “inactive”.

As to `Clc1ccc(C2=Nn3c(nnc3-c3cc(-c4ccccc4)n[nH]3)SC2)cc1`, the EC50 entry is “inactive”.

In the case of `NC(Cc1ccc(Cl)cc1)c1csc(Nc2ccc(-c3ccccc3)nn2)n1` (stereo not drawn), the EC50 was > 92.4 µM (inactive).

Regarding `Cc1ccc2[nH]c(=O)c3cc(C(=O)N(CCCOC(C)C)Cc4ccco4)sc3c2c1`, the EC50 is > 92.5 µM (inactive).

Take `Cc1cc(C)c2nc(Nc3nc(-c4ccccc4)cc(=O)[nH]3)nc(C)c2c1`: the EC50 was > 92.5 µM (inactive).

Take `Cc1cccnc1C(NC(=O)C1CCN(CCOc2ccc(Cl)cc2Cl)CC1)c1ccc(Cl)cc1` (stereo not drawn): the EC50 result is “inactive”.

For `O=C(CCN1C(=O)/C(=C/C=C/c2ccccc2)SC1=S)Nc1cccnc1`, the EC50 was > 92.5 µM (inactive).

In the case of `Cc1ccc(CN2CCC(c3cc(-c4ccc(Cl)cc4)n[nH]3)CC2)cc1`, the EC50 was > 92.5 µM (inactive).

Turning to `O=C(CSc1ccccc1)Nc1nnc(/C=C/c2ccccc2)s1`, the EC50 is > 92.5 µM (inactive).

Consider `CC1=NNC(=O)/C1=C\c1cn(-c2ccccc2)nc1-c1ccc(Cl)cc1`, for which the EC50 is > 92.5 µM (inactive).

With `COc1ccc(-c2cc(NC(C)=O)c3ncc(-c4ccccc4)n3c2)c(OC)c1`, the EC50 is > 92.4 µM (inactive).

Regarding `CC(=O)Nc1cc(-c2ccc(S(C)(=O)=O)cc2)cn2c(-c3ccc(F)c(Cl)c3)cnc12`, the EC50 is > 64.6 µM (inactive).

Regarding `COc1ccccc1-c1cc(NC(C)=O)c2ncc(-c3ccccc3)n2c1`, the EC50 was > 92.4 µM (inactive).

On to `CCc1ccc(C2CC(c3ccc(F)cc3)Nc3nc(N)nn32)cc1` (stereo not drawn), for which the EC50 is > 92.5 µM (inactive).

For `CCN1CCN(Cc2ccc(NC(=O)c3ccc(C)c(NC(=O)C(=O)c4c[nH]c5ccccc45)c3)cc2C(F)(F)F)CC1`, the EC50 is > 10.3 µM (inactive) and > 92.5 µM (inactive).

`COc1ccc(-c2cc(NC=O)c3ncc(-c4ccccc4)n3c2)cc1OC`: the EC50 is > 64.6 µM (inactive).

Regarding `CCOc1cc(NC(=O)c2cccs2)c(OCC)cc1NC(=O)c1ccco1`, the EC50 was > 92.3 µM (inactive).

On to `NC(Cc1ccc(C(F)(F)F)cc1)c1csc(NC(=O)Nc2ccccc2Cl)n1` (stereo not drawn), for which the EC50 was > 64.6 µM (inactive).

Take `Cc1ccccc1-c1nc(-c2ccc(NC(=O)c3ccc4c(c3)OCO4)cc2)no1`: the EC50 is > 92.4 µM (inactive).

Take `COc1ccc(-c2cc(NC=O)c3ncc(-c4cccc(C(F)(F)F)c4)n3c2)cc1OC`: the EC50 is > 64.6 µM (inactive).

Turning to `CCN1CCN(Cc2ccc(NC(=O)c3cc(NC(=O)C(=O)c4c[nH]c5ccccc45)cc(OC)c3)cc2C(F)(F)F)CC1`, the EC50 is > 92.5 µM (inactive).

On to `O=C1C2=C(NC(=S)NC2c2ccc(Cl)cc2)NC(c2ccc(Cl)cc2)N1c1ccc(Cl)cc1` (stereo not drawn), for which the EC50 result is “inactive”.

As for `COc1ccc(-c2cnc3c(NC(C)=O)cc(-c4ccccc4OC)cn23)cc1OC`, the EC50 is > 64.6 µM (inactive).

With `CCCCCCCCCCOC(=O)Cn1c(COc2ccc(OC)cc2)[n+](C)c2ccccc21`, the EC50 is > 92.5 µM (inactive).

Consider `NC(c1csc(NC(=O)Nc2cccc(Cl)c2)n1)C1CCCCC1` (stereo not drawn), for which the EC50 was > 92.5 µM (inactive).

Take `CC(=O)Nc1cc(-c2cccc(C(=O)NCCN(C)C)c2)cn2c(-c3cccc(C(F)(F)F)c3)cnc12`: the EC50 was > 92.5 µM (inactive).

For the compound `CN(C)c1ccccc1-c1cc(NC=O)c2ncc(-c3cccc(C(F)(F)F)c3)n2c1`, the EC50 is > 64.6 µM (inactive).

As for `CCCCCCCCCCCCCCCC[n+]1ccc(/C=N/O)cc1`, the EC50 is > 64.6 µM (inactive).

Consider `CC(=O)Nc1cc(-c2ccc(CO)cc2)cn2c(-c3cccc(C(F)(F)F)c3)cnc12`, for which the EC50 is > 64.6 µM (inactive).

Consider `N#C/C(=C\c1cn(CCOc2ccccc2F)c2ccccc12)C(=O)NCc1cccs1`, for which the EC50 was > 92.4 µM (inactive).

On to `CCC(C)NC(=O)c1c(N)n(/N=C/c2cccnc2)c2nc3ccccc3nc12` (stereo not drawn), for which the EC50 is > 92.4 µM (inactive).

Turning to `COc1cc(NC(=O)Nc2nc(C(N)Cc3ccc(C(F)(F)F)cc3)cs2)cc(OC)c1OC` (stereo not drawn), the EC50 is > 10.3 µM (inactive).

`COc1ccc(NC(=O)Nc2nnc(-c3ccccc3SCc3ccccc3)s2)cc1`: the EC50 was > 92.5 µM (inactive).

Take `NC(Cc1ccc(C(F)(F)F)cc1)c1csc(Nc2nccc(C(F)(F)F)n2)n1` (stereo not drawn): the EC50 was > 92.4 µM (inactive).

Regarding `Cc1ccc2nc(Nc3ccc4[nH]c(=O)[nH]c4c3)c(-n3nc(C)cc3C)nc2c1`, the EC50 was > 64.6 µM (inactive).

With `O=C(N=Nc1c(O)n(Cc2ccccc2)c2ccccc12)c1cc2ccccc2cc1O`, the EC50 is > 92.5 µM (inactive).

Turning to `Cc1cc(C)c2sc(N(CCCN(C)C)C(=O)COc3ccc(Cl)cc3)nc2c1`, the EC50 was > 92.5 µM (inactive).

With `Clc1ccc(/C=N/NC2=Nc3cccc4cccc2c34)cc1`, the EC50 was > 92.4 µM (inactive).

As for `CC(=O)Nc1cc(-c2cccc(C(=O)N(C)C)c2)cn2c(-c3ccc(F)c(Cl)c3)cnc12`, the EC50 is > 64.6 µM (inactive).

Regarding `Clc1ccc(Cn2ncc3c(N4CCN(c5ccccc5)CC4)ncnc32)cc1`, the EC50 is > 92.3 µM (inactive).

As for `CN(C)CCNC(=O)c1cccc(-c2cc(NC=O)c3ncc(-c4cccc(C(F)(F)F)c4)n3c2)c1`, the EC50 is > 92.5 µM (inactive).

Consider `Cc1ccc(NC(=O)c2ccccc2OCC(=O)c2ccc(F)cc2)cc1`, for which the EC50 was > 92.5 µM (inactive).

For the compound `CC(=O)Nc1cc(-c2ccc(C(=O)N3CCOCC3)cc2)cn2c(-c3ccccc3)cnc12`, the EC50 is > 92.5 µM (inactive).

As to `CCOc1cc(CNCCc2c[nH]c3ccccc23)cc(Cl)c1OCC`, the EC50 is > 92.5 µM (inactive).

For the compound `Cc1cc(C)c2sc(N(CCCN(C)C)C(=O)c3ccc(Br)s3)nc2c1`, the EC50 was > 92.5 µM (inactive).

For the compound `Cc1cccc(C)c1-n1cccc1/C=C1\SC(=S)N(c2cccc(C(=O)O)c2)C1=O`, the EC50 is > 92.5 µM (inactive).

As to `COc1cc(NS(=O)(=O)c2ccc(NC(=S)NC(=O)c3sc4ccccc4c3Cl)cc2)ncn1`, the EC50 was > 92.4 µM (inactive).

As to `CC(=O)Nc1cc(-c2ccccc2)cn2c(-c3ccc(F)cc3)cnc12`, the EC50 is > 64.6 µM (inactive).

Turning to `Cc1ccc(C2=NN(C(=O)c3cccs3)C(c3ccccc3O)C2)cc1` (stereo not drawn), the EC50 is > 64.6 µM (inactive).

With `COc1cc2nc(Nc3ccc(C)c(Cl)c3)nc(N)c2cc1OC`, the EC50 is > 92.5 µM (inactive).

As for `CCCOC(=O)c1cccc(Nc2nc(-c3cccnc3)nc3ccccc23)c1`, the EC50 is > 92.6 µM (inactive).

Turning to `COc1ccc(C(NC(=O)C2CCN(CCOc3ccc(Cl)cc3Cl)CC2)c2cccs2)cc1` (stereo not drawn), the EC50 entry was “inactive”.

With `COc1ccc(NC(=O)COC(=O)c2c(NC(C)=O)sc(C)c2C)cc1`, the EC50 was > 92.5 µM (inactive).

Regarding `COc1ccc(-c2ccc3c(c2)S(=O)(=O)c2cccc(C(=O)NCc4cc(C)oc4C(F)(F)F)c2C3=O)cc1OC`, the EC50 is > 92.5 µM (inactive).

As to `CCN1C(=O)/C(=C2/Sc3ccc(OC)cc3N2C)SC1=Nc1cccc(O)c1`, the EC50 was > 92.5 µM (inactive).

For the compound `Cc1cc(C)nc(Nc2nc(C(N)Cc3ccc(C(F)(F)F)cc3)cs2)n1` (stereo not drawn), the EC50 is > 92.5 µM (inactive).

In the case of `CC(=O)Nc1cc(-c2ccc(C(=O)NC3CC3)cc2)cn2c(-c3cccc(C(F)(F)F)c3)cnc12`, the EC50 was > 64.6 µM (inactive).

`Cc1ccc2sc(N(CCCN(C)C)C(=O)CN3C(=O)c4ccccc4C3=O)nc2c1C`: the EC50 is > 64.6 µM (inactive).

For `COc1cccc(-c2cnc3c(NC=O)cc(-c4cc(OC)c(OC)c(OC)c4)cn23)c1`, the EC50 was > 92.5 µM (inactive).

Turning to `CN(C)CCCN(C(=O)CCc1ccccc1)c1nc2ccc(Cl)cc2s1`, the EC50 was > 92.4 µM (inactive).

With `Cc1cc(C)c(CN2CCN(CCCn3cnc(C(=O)Nc4ccc(C)c(C)c4)n3)CC2)c(C)c1`, the EC50 is > 92.5 µM (inactive).

On to `COC(=O)c1c(NC(=O)CC2SC(N)=NC2=O)sc2c1CCC(C(C)(C)C)C2` (stereo not drawn), for which the EC50 is > 92.5 µM (inactive).

Consider `Cc1cc(C)nc(Nc2nc(C(N)Cc3ccc(Cl)cc3)cs2)n1` (stereo not drawn), for which the EC50 is > 92.5 µM (inactive).

As to `CC(=O)Nc1cc(-c2cccc(F)c2)cn2c(-c3ccc(F)cc3)cnc12`, the EC50 is > 92.5 µM (inactive).

On to `Cc1cc(N2CCN(C(=O)c3ccco3)CC2)n2nc(-c3cccc(Cl)c3)cc2n1`, for which the EC50 was > 64.6 µM (inactive).

On to `CC(=O)Nc1cc(-c2cccnc2)cn2c(-c3cccc(C(F)(F)F)c3)cnc12`, for which the EC50 is > 92.5 µM (inactive).

As for `CCCCNc1c(-c2cccc(-c3cc(C(C)=O)cs3)c2)nc2ccc(C)cn12`, the EC50 is > 64.6 µM (inactive).

In the case of `COc1cc(-c2cc(NC=O)c3ncc(-c4cccc(C(F)(F)F)c4)n3c2)cc(OC)c1OC`, the EC50 is > 64.6 µM (inactive).

Turning to `COc1cc(-c2cc(NC=O)c3ncc(-c4ccccc4)n3c2)cc(OC)c1OC`, the EC50 was > 64.6 µM (inactive).

As to `COc1ccc(-c2cnc3c(NC(C)=O)cc(-c4cc(F)ccc4OC)cn23)cc1OC`, the EC50 was > 64.6 µM (inactive).

As to `CC(=O)Nc1cc(-c2ccc(N(C)C)cc2)cn2c(-c3ccc(F)c(Cl)c3)cnc12`, the EC50 is > 92.5 µM (inactive).

As for `CCCCCCCCCCOC(=O)Cn1c(COc2cccc(C)c2)[n+](C)c2ccccc21`, the EC50 was > 64.6 µM (inactive).

`COc1ccccc1-c1cc(NC=O)c2ncc(-c3ccc(F)cc3)n2c1`: the EC50 is > 92.4 µM (inactive).

As for `CCOc1ccc(NC(=O)CSc2nc(-c3cccs3)cc(C(F)(F)F)n2)c([N+](=O)[O-])c1`, the EC50 was > 64.6 µM (inactive).

As to `CCCCCCOc1ccc(/C(C)=N/NC2=NCCN2)cc1`, the EC50 was > 92.4 µM (inactive).

In general, EC50 refers to the concentration at which the effect is half-maximal.
